Activity calls are given as the source filed them. The calls are words filed in the database; no cut-off is given here. A value given as a limit tells only on which side of the number the result lay.

Data set [1] has as its target T1, Tyrosine-protein kinase JAK3 (Homo sapiens, UniProt P52333).
T1 sequence (P52333 whole entry): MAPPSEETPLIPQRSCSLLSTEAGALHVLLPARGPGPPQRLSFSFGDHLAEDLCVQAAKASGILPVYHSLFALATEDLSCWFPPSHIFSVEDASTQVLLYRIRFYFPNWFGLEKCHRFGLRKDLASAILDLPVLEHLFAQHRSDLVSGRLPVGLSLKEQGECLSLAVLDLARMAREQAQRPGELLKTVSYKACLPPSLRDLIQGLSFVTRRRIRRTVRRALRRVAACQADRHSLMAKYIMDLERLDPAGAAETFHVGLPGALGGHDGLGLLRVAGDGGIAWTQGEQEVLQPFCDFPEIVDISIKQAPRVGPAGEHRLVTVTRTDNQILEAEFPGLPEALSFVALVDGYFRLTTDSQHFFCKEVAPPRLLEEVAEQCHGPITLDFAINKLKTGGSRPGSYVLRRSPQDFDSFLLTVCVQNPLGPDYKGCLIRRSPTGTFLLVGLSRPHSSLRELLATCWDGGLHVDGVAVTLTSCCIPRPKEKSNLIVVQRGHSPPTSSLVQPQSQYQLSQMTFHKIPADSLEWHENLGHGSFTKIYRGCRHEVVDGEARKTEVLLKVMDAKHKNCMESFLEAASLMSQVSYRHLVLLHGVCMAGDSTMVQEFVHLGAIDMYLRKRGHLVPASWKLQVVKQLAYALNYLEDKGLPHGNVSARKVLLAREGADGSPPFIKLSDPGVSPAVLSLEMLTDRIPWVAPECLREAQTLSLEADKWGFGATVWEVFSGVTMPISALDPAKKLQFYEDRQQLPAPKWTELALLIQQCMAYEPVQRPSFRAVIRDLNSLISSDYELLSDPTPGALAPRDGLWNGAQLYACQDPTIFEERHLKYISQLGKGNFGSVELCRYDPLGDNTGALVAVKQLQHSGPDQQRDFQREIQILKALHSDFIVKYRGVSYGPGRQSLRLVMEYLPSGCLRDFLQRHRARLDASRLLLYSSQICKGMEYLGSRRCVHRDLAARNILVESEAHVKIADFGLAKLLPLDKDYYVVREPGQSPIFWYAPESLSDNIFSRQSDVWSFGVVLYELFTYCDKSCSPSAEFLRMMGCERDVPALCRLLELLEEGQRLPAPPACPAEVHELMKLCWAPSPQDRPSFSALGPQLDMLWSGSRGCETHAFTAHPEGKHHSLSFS
Description: Inhibition of JAK3 (unknown origin) using Kinase/Tyr 6 peptide as substrate incubated for 1 hrs in presence of ATP by fluorescence microplate reader analysis

Data set [2] is described as follows: Toxicity in mouse assessed as effect on white blood cell number at 50 mg/kg, IG measured upto 2 weeks. The format is organism-based. The settings on record: in vivo, po, 336 h.
The nature of data set [3]: Toxicity in mouse assessed as drug tolerability at 20 to 50 mg/kg, IG measured upto 2 weeks. The settings on record: in vivo, po, 336 h, dose 20-50 mg/kg. The class given is organism-based.
Data set [4] has as its system THP1-Dual. As to the kind of experiment: Downregulation of complement system in human THP1-Dual cells at 1 uM incubated for 6 hrs. The format is functional, cell-based.
For data set [5], the system named is Mus musculus. In words: Anti-inflammatory activity in TNBS induced IBD BALB/c mouse model assessed as reduction in bloody stool by measuring disease activity index score at 1 to 5 mg/kg via oral gavage administered daily for 12 days. The class given is functional, organism-based. The settings on record: dose 1-5 mg/kg, time 12.0 day.
For data set [6], the system named is Mus musculus. In words: Antiinflammatory activity in DSS-induced acute colitis C57BL/6 mouse model assessed as reduction in lamina propria damage in colon by measuring histopathological score at 1 to 3 mg/kg, po by H and E staining based analysis. The format is functional, organism-based. The settings on record: dose 1-3 mg/kg.
Data set [7] relates to THP1-Dual. As to the kind of experiment: Inhibition of LPS induced TNF alpha expression in human THP1-Dual cells at 1 uM incubated for 6 hrs. The class given is functional, cell-based.
For data set [8], the system named is THP1-Dual. As to the kind of experiment: Inhibition of LPS induced IL12b expression in human THP1-Dual cells at 1 uM incubated for 6 hrs. The class given is functional, cell-based.
Data set [9] relates to Mus musculus. As to the kind of experiment: Antiinflammatory activity in DSS-induced acute colitis C57BL/6 mouse model assessed as recovery of colon length at 1 to 3 mg/kg, po administered daily and measured upto 11 days. The class given is functional, organism-based. The settings on record: dose 1-3 mg/kg, time <= 11.0 day.
Data set [10] relates to Mus musculus. In words: Anti-inflammatory bowel disease activity in DSS-induced acute enteritis mouse model assessed as reversal of intestinal microbiota at 3 mg/kg. The format is functional, organism-based.
A short description of data set [11]: Cytotoxicity against human GM00637 cells assessed as inhibition of cell growth measured after 24 hrs by CCK-8 method. The class given is toxicity, cell-based.
The subject of data set [12] is Mus musculus. As to the kind of experiment: Antiinflammatory activity in DSS-induced acute colitis C57BL/6 mouse model assessed as reduction in intestinal edema in colon by measuring histopathological score at 1 to 3 mg/kg, po by H and E staining based analysis. The class given is functional, organism-based. The settings on record: dose 1-3 mg/kg.
For data set [13], the system named is Mus musculus. As to the kind of experiment: Antiinflammatory activity in DSS-induced acute enteritis C57BL mouse model assessed as suppression of DSS induced weight loss at 3 mg/kg, po administered daily and measured upto 11 days relative to control. The format is functional. The settings on record: time <= 11 day.
Data set [14] concerns THP1-Dual. As to the kind of experiment: Anti-inflammatory activity against LPS-stimulated human THP1-Dual cells assessed as inhibition of IL-6 secretion incubated for 6 hrs followed by LPS stimulation by Western blot analysis. The format is functional, cell-based. The settings on record: dose 0.33-3 µM, DDE = dose-dependent effect.
Data set [15] deals with THP1-Dual. As to the kind of experiment: Downregulation of TNF alpha in human THP1-Dual cells at 1 uM incubated for 6 hrs. The format is functional, cell-based.
Data set [16] is described as follows: Toxicity in mouse assessed as behavioral changes at 20 to 50 mg/kg, IG measured upto 2 weeks. The settings on record: in vivo, po, 336 h, dose 20-50 mg/kg. The format is organism-based.

Turning to `Cc1nc2cnc3ccc(-c4cc(Cl)c(O)c(Cl)c4)cc3c2n1C1CCN(C)CC1`, 46.2 nM corresponded to half-maximal inhibition in data set [1] (IC50). The Activity result in data set [2] was “Non-Toxic”; in data set [3] it was “Non-Toxic”; with Mus musculus [13], 10.81%; with THP1-Dual [14], “Dde”; in data set [16] it was “Non-Toxic”. The outcome with THP1-Dual [4], in the data set on Mus musculus [5], in the data set with Mus musculus [6], with Mus musculus [9], with Mus musculus [10] and in the data set with Mus musculus [12] was Active. The result with THP1-Dual [15] was Active. Also, the inhibition entry with THP1-Dual [7] and in the data set with THP1-Dual [8] was “Active” each time. Further, the half-inhibitory concentration (IC50) at 24 h in data set [11] was over 10000 nM.

The values are drawn from ChEMBL document CHEMBL5113519, “Discovery of Novel Imidazo[4,5-c]quinoline Derivatives to Treat Inflammatory Bowel Disease (IBD) by Inhibiting Multiple Proinflammatory Signaling Pathways and Restoring Intestinal Homeostasis” (J Med Chem, 2022).
